Molecules are shown by their SMILES.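 How tested: cells in 96-well plates exposed to compound for 48 hours at five concentrations. GI50 is the concentration that inhibits growth by half. TGI: total growth inhibition.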

Holding throughout (test): NCI-60 cell line screen, 48 h
For experiment [1], the system named is ACHN renal.
In experiment [2] the test system is M14 melanoma.
Experiment [3] has as its system SN12C renal.
In experiment [4] the test system is HOP-62 NSCLC.
The subject of experiment [5] is HOP-92 NSCLC.
The test system of experiment [6] is U251 CNS.
In experiment [7] the test system is NCI-H226 lung.
The test system of experiment [8] is MOLT-4 leukemia.
In experiment [9] the test system is SW-620 colon.
Experiment [10] concerns SK-MEL-28 melanoma.

Take `O=C(CCCn1ccnc1[N+](=O)[O-])NCCn1cncc1[N+](=O)[O-]`: the TGI in [1], in experiment [2], in [3], in experiment [4], in [5] and in [6] was over 100 µM in each case. The TGI in experiment [7], in experiment [8], in [9] and in experiment [10] was over 100 µM throughout.
Take `COc1ncnc(C2CC2)c1-c1ncc2cnn(Cc3ccc(-c4nc(C(F)(F)F)cn4C(C)C)cc3)c2n1`: the GI50 in experiment [1] was 17.6 µM; in [2], 28.1 µM; in experiment [3], 18.6 µM; in experiment [4] it was 25.6 µM; in experiment [5], 6.41 µM; in [6], 25.7 µM. For the same compound, the GI50 in experiment [7] was 9.08 µM; in experiment [8], 17.5 µM; in experiment [9], 28 µM; in experiment [10], 19.1 µM. Also, the TGI in experiment [1] is 49.2 µM; in experiment [2], over 100 µM; in [3], over 100 µM; in experiment [4], over 100 µM; in [5] it was 73.5 µM; in experiment [6], over 100 µM. Further, the TGI in experiment [7] is 50.7 µM; in [8], over 100 µM; in experiment [9], over 100 µM; in experiment [10], 71.3 µM.
As for `Oc1ccc(Cl)cc1Cc1cc(Cl)cc(Cl)c1O`, the GI50 is 3.69 µM in [1]; 4.61 µM in [2]; 3.7 µM in experiment [3]; 3.68 µM in [4]; 1.19 µM in [5]; 5.12 µM in experiment [6]. Also, the GI50 in experiment [7] was 12.7 µM; in experiment [8], 5.52 µM; in experiment [9] it was 5.37 µM; in experiment [10], 4.83 µM. The TGI in [1] was 18 µM; in experiment [2], 23 µM; in experiment [3], 21.8 µM; in [4] it was 21 µM; in experiment [5] it was 6.42 µM; in experiment [6], 50.9 µM. Further, the TGI in experiment [7] stood at 37.2 µM; in [8], 32.1 µM; in experiment [9], 19.9 µM; in [10] it was 31.7 µM.
Regarding `CNC(=S)NC1CCCCC1NC(=S)NC` (centres undefined), the TGI in [1], in experiment [2], in experiment [3], in experiment [4], in experiment [5] and in [6] was over 100 µM each time. Moreover, the TGI in experiment [7], in experiment [8], in experiment [9] and in [10] was over 100 µM in each case.
As to `CCCCOC(=O)C1C(c2ccc(Cl)cc2)NC(c2ccc(Cl)cc2)C(C(=O)OCCCC)S1(=O)=O` (centres undefined), the TGI in experiment [1], in experiment [2], in experiment [3], in experiment [4], in [5] and in [6] was over 100 µM throughout. The TGI in [7], in experiment [8], in experiment [9] and in experiment [10] was over 100 µM throughout.
Take `CNCCNc1c2c(c(NCCNC)c3c(CN(C)C)c[nH]c13)C(=O)c1ccccc1C2=O`: the GI50 in experiment [1] is 3.52 µM; in experiment [2] it was 5.58 µM; in [3], 0.788 µM; in experiment [4] it was 2.9 µM; in experiment [5] it was 1.02 µM; in [6] it was 2.95 µM. The GI50 in [7] is 6.69 µM; in [8], 0.434 µM; in experiment [9] it was 1.31 µM; in [10] it was 9.59 µM. The TGI in experiment [1] came to 14.4 µM; in experiment [2], 15.5 µM; in experiment [3], 7.47 µM; in experiment [4] it was 10.1 µM; in experiment [5] it was 5.33 µM; in [6] it was 13.8 µM. In addition, the values for the TGI in [7], in [9] and in experiment [10] were 24.2 µM, 11 µM and 26.4 µM, respectively.
As to `COc1ccc(NC(=O)CCc2cc(-c3ccc(O)c(OC)c3)nc(NC#N)n2)cc1`, the TGI in experiment [1], in [2], in [3], in [4], in [5] and in experiment [6] was over 100 µM each time. In addition, the TGI in experiment [7], in experiment [8], in experiment [9] and in [10] was over 100 µM in each case.
On to `O=c1nc2occc2cn1C1CC(O)C(CO)O1` (centres undefined), for which the TGI in [1], in [2], in experiment [3], in experiment [4], in experiment [5] and in [6] was over 100 µM in each case. Besides, the TGI in experiment [7], in experiment [8], in experiment [9] and in experiment [10] was over 100 µM each time.
For `COc1ccc2c(c1)C(C)Cc1c(Cl)ncnc1N2C` (centres undefined), the GI50 in experiment [1] was 0.852 µM; in [2], 0.345 µM; in experiment [3], 1.29 µM; in [4], 0.475 µM; in [5] it was 1.25 µM; in experiment [6], 0.478 µM. The GI50 in experiment [7] was 0.213 µM; in [8] it was 1.17 µM; in [9], 0.377 µM; in experiment [10], 0.368 µM. Moreover, the TGI in experiment [1] is over 100 µM; in experiment [2] it was 7.99 µM; in [3] it was 23.6 µM; in experiment [4], 20.1 µM; in [5], 7.5 µM; in [6] it was over 86.4 µM. The TGI was 0.481 µM in [7], over 22.6 µM in experiment [8], 17.8 µM in experiment [9] and 46.1 µM in experiment [10].
Turning to `CC(=O)O.CC(=O)O.CC(=O)O.CC(=O)O.CC(=O)O.CC(=O)O.O.[Ti].[Ti]`, the GI50 in [1], in experiment [2], in experiment [3], in [4], in [5] and in experiment [6] was over 100 µM throughout. Moreover, the GI50 in experiment [7], in experiment [8], in experiment [9] and in experiment [10] was over 100 µM each time. Besides, the TGI in experiment [1], in [2], in experiment [3], in [4], in [5] and in experiment [6] was over 100 µM throughout. Further, the TGI in [7], in experiment [8], in experiment [9] and in experiment [10] was over 100 µM in each case.
